From patent publication US11998595B2, “Telomerase polypeptide vaccine for treating cancer” (Ultimovacs AS, priority 2010, dated 2024)

Legend:
[1] = test system: late stage inoperable colon cancer patient; assay: Clinical course of vaccinated colon cancer patient; type: in vivo, human; conditions: patient Colon ca P1
Procedure: (§1) A comparison of the patients studied in Example 4 was carried out. In brief, seven patients were identified as clinical responders following a cancer diagnosis and vaccination with an hTERT vaccine. These patients were identified based on a combination of prolonged survival and clinical response. The clinical response could either be stable disease (SD), partial response (PR) or complete response (CR). The vaccinated melanoma patients were diagnosed with stage IV at the time of inclusion in the clinical trial, but had no brain metastases. Lung cancer patient P5 was diagnosed with stage IV, inoperable lung cancer and colon cancer patient P1 with late stage inoperable colon cancer. Lung cancer patient P6 was a stage IV lung cancer patient with a 12-week life expectancy. Pancreas cancer patient P1 had relapsed, inoperable pancreas cancer and a life expectancy of 8-10 months. Four of the patients (designated Melanoma P7-P8, Lung cancer P5 and Colon cancer P1) had each been vaccinated with the peptide GV1001 (SEQ ID NO. 10). The fifth patient (designated Lung cancer P6) and the sixth patient (designated Pancreas cancer 1) had been vaccinated with dendritic cells transfected with mRNA encoding hTERT. The seventh patient, Melanoma patient P9, had not been vaccinated at the time of the study and instead developed a spontaneous response following development of the cancer. (An eighth and final patient was also identified as a clinical responder but samples from this patient were not available for study.)
(§2) The patients were classed as either clinical responders or clinical non-responders based on their clinical response which included stable disease (SD), tumour regression (PR or CR) and unexpectedly long survival time. Both clinical responders and clinical non-responders were selected from the same or similar vaccination trials.

[2] = test system: stage IV lung cancer patients; assay: Clinical course of vaccinated lung cancer patients; type: in vivo, human; design: key to Clinical response: PD = Progressive disease; SD = Stable disease; PR = Partial response; CR = Complete response
Procedure: as §1
(§3) Four patients who were clinical non-responders following a lung cancer diagnosis and a GV1001 (SEQ ID NO. 10) peptide vaccination were studied. These patients were all stage IV lung cancer patients vaccinated with GV1001. […] The proliferative T-cell responses of each patient to a series of peptides were determined in the same manner as in Example 1, at one time point. The peak response of each patient during the study period to peptide GV1001 is also shown which confirms that each patient responded immunologically to GV1001 vaccination.
as §2

T cells (patient PBMCs) = assay: T-cell proliferation assay (3H-thymidine) of patient PBMC/T cells with hTERT peptides or transfected DC; type: cell-based, human
Procedure: FIG. 1 is a bar graph summarising hTERT T-cell responses detected in pancreas cancer patient vaccinated with DC transfected with hTERT mRNA. In samples from various time points throughout a vaccination schedule, T-cell responses against 24 overlapping hTERT 15-mer peptides were detected. Proliferation in response to peptide-loaded PBMC was measured by ^3H-thymidine incorporation. A stimulation index of >2 is considered an immune response.
Peripheral blood mononuclear cells (PBMCs) were obtained prior to the four standard vaccinations, after 5 weeks and after 12 weeks. PBMCs were also obtained before each monthly booster vaccination. The PBMCs were isolated and frozen as previously described (Kyte et al, 2005). Thawed PBMCs were stimulated once in vitro with tDCs (not with mockDCs) and cultured and then tested in T cell proliferation assays (^3H Thymidine) as previously described (Kyte et al 2006). The T cells were tested in triplicates. Irradiated tDCs and mock-transfected DC controls (mockDCs) were used or PBMC with or without hTERT peptide as APCs. Negative controls with T cells only were included.
PBMCs from various time points were stimulated with an overlapping hTERT 15-mer peptide library or a 30-mer hTERT peptide, all from ProImmune and then tested in proliferation assays as above using irradiated PBMCs as APCs as described in (Bernhardt et al 2006).
T-cell responses to a hTERT peptide library (including the polypeptides from Table 1) were determined for T-cells from 5 patients in addition to the patients reported in Examples 1 and 2. The methods were the same as previously described in Example 1 or in Bernhardt et al 2006. In brief, PBMCs from various time points during vaccination were stimulated with the overlapping hTERT peptide library prior to testing for specific T-cell responses in proliferation assays.
The proliferative T-cell responses of each patient to a series of peptides were then determined as explained in Example 1. The results are tabulated in Table 5 and are shown graphically in FIG. 14 in which the peptide designations are referenced in Table 6 (the results for peptides 726 and GV1001 are shown only for comparison).
as §3
Six patients who were clinical non-responders following a melanoma cancer diagnosis and a GV1001 peptide (SEQ ID NO. 10) vaccination were studied. These patients were all stage IV melanoma patients and included in the same GV1001 vaccination trial as melanoma patients P7 and P8 who were long term survivors (see Example 6). […] Five of the patients also experienced progressive disease and one patient, designated Melanoma P3, experienced some stabilization of the disease but still had short survival. The proliferative T-cell responses of each patient to a series of peptides were determined in the same manner as in Example 1, at one time point. The peak response of each patient during the study period to peptide GV1001 is also shown which confirms that each patient responded immunologically to GV1001 vaccination.

EARPALLTSRLRFIPK (listed as Homo sapiens) [GV1001]
Clinical Responder [1]: Yes
Clinical response [1]: alive, CR
Vaccine-specific T cell response at time-point tested [1]: Yes
Survival (Months) ([1]; + signifies that the patient is still alive): 80+ Months
Clinical Responder ([2]; patient Lung ca P1): No
Clinical response ([2]; patient Lung ca P1): PD
Survival (Months) ([2]; patient Lung ca P1): 14 Months
Vaccine-specific T cell response at time-point tested ([2]; patient Lung ca P1): Yes
Clinical Responder ([2]; patient Lung ca P2): No
Clinical response ([2]; patient Lung ca P2): PD
Survival (Months) ([2]; patient Lung ca P2): 6 Months
Vaccine-specific T cell response at time-point tested ([2]; patient Lung ca P2): Yes
Clinical Responder ([2]; patient Lung ca P3): No
Survival (Months) ([2]; patient Lung ca P3): 20 Months
Vaccine-specific T cell response at time-point tested ([2]; patient Lung ca P3): Yes
Clinical Responder ([2]; patient Lung ca P4): No
Survival (Months) ([2]; patient Lung ca P4): 10 Months
Vaccine-specific T cell response at time-point tested ([2]; patient Lung ca P4): Yes
Clinical Responder ([2]; patient Lung ca P5): Yes
Clinical response ([2]; patient Lung ca P5): alive, CR
Vaccine-specific T cell response at time-point tested ([2]; patient Lung ca P5): Yes
Survival (Months) ([2]; patient Lung ca P5, + signifies that the patient is still alive): 106+ Months
SI of response (T cells (patient PBMCs); all patients of Example 6): > 2
immunological response of patients (T cells (patient PBMCs); all patients of Examples 1 to 8): All patients responded immunologically
proliferative T-cell response (SI) (T cells (patient PBMCs); patient Colon ca P1, GV1001-vaccinated, clinical responder): 105.1
proliferative T-cell response (SI) (T cells (patient PBMCs); patient Lung ca P1, GV1001-vaccinated, clinical non-responder, one time point): 0.9
Peak response GV1001 (T cells (patient PBMCs); patient Lung ca P1, peak during study period): 60.95
proliferative T-cell response (SI) (T cells (patient PBMCs); patient Lung ca P2, GV1001-vaccinated, clinical non-responder, one time point): 122.8
Peak response GV1001 (T cells (patient PBMCs); patient Lung ca P2, peak during study period): 122.8
proliferative T-cell response (SI) (T cells (patient PBMCs); patient Lung ca P3, GV1001-vaccinated, clinical non-responder, one time point): 1.4
Peak response GV1001 (T cells (patient PBMCs); patient Lung ca P3, peak during study period): 161.6
proliferative T-cell response (SI) (T cells (patient PBMCs); patient Lung ca P4, GV1001-vaccinated, clinical non-responder, one time point): 1.2
Peak response GV1001 (T cells (patient PBMCs); patient Lung ca P4, peak during study period): 13.3
proliferative T-cell response (SI) (T cells (patient PBMCs); patient Lung ca P5, GV1001-vaccinated, clinical responder): 20.1
proliferative T-cell response (SI) (T cells (patient PBMCs); patient Lung ca P6, DC/hTERT mRNA-vaccinated, clinical responder, high background): 7.1
proliferative T-cell response (SI) (T cells (patient PBMCs); patient Melanoma P1, GV1001-vaccinated, clinical non-responder, one time point): 1.4
Peak response GV1001 (T cells (patient PBMCs); patient Melanoma P1, peak during study period): 26.0
proliferative T-cell response (SI) (T cells (patient PBMCs); patient Melanoma P2, GV1001-vaccinated, clinical non-responder, one time point): 0.9
Peak response GV1001 (T cells (patient PBMCs); patient Melanoma P2, peak during study period): 38.7
proliferative T-cell response (SI) (T cells (patient PBMCs); patient Melanoma P3, GV1001-vaccinated, clinical non-responder, one time point): 1.8
Peak response GV1001 (T cells (patient PBMCs); patient Melanoma P3, peak during study period): 3.7
proliferative T-cell response (SI) (T cells (patient PBMCs); patient Melanoma P4, GV1001-vaccinated, clinical non-responder, one time point): 1.2
Peak response GV1001 (T cells (patient PBMCs); patient Melanoma P4, peak during study period): 10.7
proliferative T-cell response (SI) (T cells (patient PBMCs); patient Melanoma P5, GV1001-vaccinated, clinical non-responder, one time point): 25.2
Peak response GV1001 (T cells (patient PBMCs); patient Melanoma P5, peak during study period): 35.4
proliferative T-cell response (SI) (T cells (patient PBMCs); patient Melanoma P6, GV1001-vaccinated, clinical non-responder, one time point): 21.4
Peak response GV1001 (T cells (patient PBMCs); patient Melanoma P6, peak during study period): 122.0
proliferative T-cell response (SI) (T cells (patient PBMCs); patient Melanoma P7, GV1001-vaccinated, clinical responder): 76.5
proliferative T-cell response (SI) (T cells (patient PBMCs); patient Melanoma P8, GV1001-vaccinated, clinical responder): 13.2
proliferative T-cell response (SI) (T cells (patient PBMCs); patient Melanoma P9, non-vaccinated, spontaneous response): 1.7
proliferative T-cell response (SI) (T cells (patient PBMCs); patient Pancreas ca P1, DC/hTERT mRNA-vaccinated, clinical responder, high background): 2.2
